Entries after “also recorded” stand apart in the source; their conditions may differ. Values belong to the compound of their own block, whether it stands above or below them. Numbered stars: 1 amine (or outer) side, 2 acyl side, 3 side chain; on linkers, the order of the positions; unused ones are H or OH. Bridge positions count the residues as written; N and C are the ends. Square brackets hold non-standard residues; d marks the D form. Peptide text beside a SMILES is read from it. I, II: the chains in the order shown. Actinocin(9to1) = Cc1c2oc3c(C)ccc(C(=O)[*:1])c3nc-2c(C(=O)[*:2])c(N)c1=O; NMeV = CN[C@H](C(=O)O)C(C)C; Sar = CNCC(=O)O
Assays:
NSD2-PWWP1 = target: T1, NSD2-PWWP1 (Homo sapiens, UniProt O96028); assay: SPR binding to immobilized NSD2-PWWP1
T1 sequence (O96028 208-368): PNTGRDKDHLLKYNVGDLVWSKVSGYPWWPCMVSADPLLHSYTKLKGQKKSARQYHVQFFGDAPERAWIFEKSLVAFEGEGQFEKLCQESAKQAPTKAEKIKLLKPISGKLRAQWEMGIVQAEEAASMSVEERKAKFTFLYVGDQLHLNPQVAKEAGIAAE

KMS-11 t(4; 14) MM cells = assay: Proliferation of KMS-11 cocultured with OP9 bone marrow stromal cells; format: cell-based; settings: 5 μM for 10 d before seeding on OP9
[1] = system: endogenous NSD2 localization in U2OS cells; assay: Confocal microscopy of endogenous NSD2 nucleolar localization; format: cell-based; settings: 4 h; for steady-state pool of nucleolar NSD2 under nucleolar perturbation: actinomycin D 50 nM, doxorubicin 1 μM
[2] = system: adherent or hematopoietic malignancy cell lines; assay: Cytotoxicity profiling; format: cell-based; settings: up to 5 μM over 3–12 d
[3] = system: loci-specific H3K36me2 levels in KMS-11 cells; assay: H3K36me2 ChIP-qPCR; format: cell-based; settings: 5 μM, 72 h
[4] = target: T2, NSD3-PWWP1 interaction with histone H3.3 (Homo sapiens, UniProt Q9BZ95); assay: NanoBRET PPI assay, NSD3-PWWP1; format: cell-based; settings: U2OS cells, 10 μM compound
T2 sequence (Q9BZ95 270-333 limits assumed): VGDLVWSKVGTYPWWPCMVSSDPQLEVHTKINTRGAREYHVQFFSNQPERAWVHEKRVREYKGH

[5] = system: global H3K36 methylation in KMS-11 cells; assay: Western blotting for global H3K36 methylation; format: cell-based; settings: 72 h
[6] = system: fl-NSD2 chromatin association in KMS-11 cells; assay: Cell fractionation, NSD2 release from chromatin; format: cell-based; settings: KMS-11 cell fractionation, 10 μM compound
[7] = system: panel of 33 methyltransferase domains, including NSD1, NSD2, NSD3 and SETD2; assay: Methyltransferase selectivity panel; format: biochemical; settings: 1 and 10 μM compound
[8] = system: mRNA levels of NSD2 target genes in KMS-11 cells; assay: RT-qPCR of NSD2 target genes; format: cell-based; settings: 5 μM, 72 h
[9] = system: NSD2-GFP localization in U2OS cells; assay: Nucleolar colocalization of GFP-tagged NSD2 WT and mutants with RFP-fibrillarin; format: cell-based; settings: 4 h, 5 μM compound
[10] = target: human sodium-dependent serotonin transporter (Homo sapiens, UniProt P31645); assay: NIMH PDSP panel of CNS receptors, channels and transporters; format: binding
Sequence of human sodium-dependent serotonin transporter (P31645 whole entry): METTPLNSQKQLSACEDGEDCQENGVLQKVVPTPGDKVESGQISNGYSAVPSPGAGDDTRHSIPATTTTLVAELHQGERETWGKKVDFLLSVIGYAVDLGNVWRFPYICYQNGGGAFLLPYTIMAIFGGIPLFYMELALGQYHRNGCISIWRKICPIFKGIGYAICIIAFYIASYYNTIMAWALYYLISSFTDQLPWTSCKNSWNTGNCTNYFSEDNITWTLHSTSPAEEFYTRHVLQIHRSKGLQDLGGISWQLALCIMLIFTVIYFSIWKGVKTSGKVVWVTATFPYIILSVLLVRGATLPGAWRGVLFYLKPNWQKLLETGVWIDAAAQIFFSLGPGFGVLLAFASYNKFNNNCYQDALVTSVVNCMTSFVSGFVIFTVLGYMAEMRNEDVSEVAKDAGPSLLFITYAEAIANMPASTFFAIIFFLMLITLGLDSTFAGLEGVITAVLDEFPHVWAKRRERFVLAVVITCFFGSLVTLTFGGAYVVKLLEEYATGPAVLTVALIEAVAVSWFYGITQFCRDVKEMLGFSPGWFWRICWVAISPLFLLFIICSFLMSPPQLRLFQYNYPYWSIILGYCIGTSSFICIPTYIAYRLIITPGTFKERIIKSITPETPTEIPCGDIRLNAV

[11] = system: ribosomal RNA (rRNA) transcription; assay: rRNA transcription; settings: for pre-rRNA expression levels by RT-qPCR: 5 μM compound at 2, 4, or 16 hours
endogenous NSD2 = target: T3, endogenous NSD2 (Homo sapiens, UniProt O96028); assay: UNC7096 chemical pulldown and chemical proteomics in KMS-11 whole-cell lysates; format: binding
T3 sequence (O96028 1-627 limits assumed): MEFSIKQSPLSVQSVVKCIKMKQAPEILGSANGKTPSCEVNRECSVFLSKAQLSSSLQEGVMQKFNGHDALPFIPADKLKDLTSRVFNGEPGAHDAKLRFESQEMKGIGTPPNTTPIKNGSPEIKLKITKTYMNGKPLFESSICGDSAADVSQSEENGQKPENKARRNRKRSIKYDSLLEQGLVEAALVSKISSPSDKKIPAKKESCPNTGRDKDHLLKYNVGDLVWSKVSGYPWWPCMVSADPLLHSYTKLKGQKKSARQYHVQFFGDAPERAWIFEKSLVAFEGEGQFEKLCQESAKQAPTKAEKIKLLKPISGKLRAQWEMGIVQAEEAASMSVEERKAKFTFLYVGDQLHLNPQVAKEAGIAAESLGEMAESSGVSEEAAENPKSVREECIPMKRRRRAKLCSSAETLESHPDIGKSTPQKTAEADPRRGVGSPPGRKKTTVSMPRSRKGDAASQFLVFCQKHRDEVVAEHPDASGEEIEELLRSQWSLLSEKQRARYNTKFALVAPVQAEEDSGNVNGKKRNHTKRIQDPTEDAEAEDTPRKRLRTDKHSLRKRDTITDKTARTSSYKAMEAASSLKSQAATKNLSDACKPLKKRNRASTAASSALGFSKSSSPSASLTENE

[12] = target: T4, NSD2-PWWP1 interaction with nucleosomal H3K36me2 (Homo sapiens, UniProt O96028); assay: AlphaScreen; format: binding
T4 sequence (O96028 208-368): T1 sequence (O96028 208-368)

[13] = target: T5, dsDNA binding to NSD2-PWWP1 (Homo sapiens, UniProt O96028); assay: Fluorescence polarization DNA binding and displacement assay; settings: FP
T5 sequence (O96028 208-368): T1 sequence (O96028 208-368)

[14] = system: 15 other human PWWP domains; settings: DSF, 100 μM compound
[15] = target: T6, fl-NSD2 interaction with nucleosomal H3K36me2 (Homo sapiens, UniProt O96028); assay: AlphaScreen; format: binding; settings: read-out: IC50, disengagement of fl-NSD2 from nucleosomal H3K36me2, in the presence of SSD (2 μg ml^−1)
T6 sequence (O96028 1-1365): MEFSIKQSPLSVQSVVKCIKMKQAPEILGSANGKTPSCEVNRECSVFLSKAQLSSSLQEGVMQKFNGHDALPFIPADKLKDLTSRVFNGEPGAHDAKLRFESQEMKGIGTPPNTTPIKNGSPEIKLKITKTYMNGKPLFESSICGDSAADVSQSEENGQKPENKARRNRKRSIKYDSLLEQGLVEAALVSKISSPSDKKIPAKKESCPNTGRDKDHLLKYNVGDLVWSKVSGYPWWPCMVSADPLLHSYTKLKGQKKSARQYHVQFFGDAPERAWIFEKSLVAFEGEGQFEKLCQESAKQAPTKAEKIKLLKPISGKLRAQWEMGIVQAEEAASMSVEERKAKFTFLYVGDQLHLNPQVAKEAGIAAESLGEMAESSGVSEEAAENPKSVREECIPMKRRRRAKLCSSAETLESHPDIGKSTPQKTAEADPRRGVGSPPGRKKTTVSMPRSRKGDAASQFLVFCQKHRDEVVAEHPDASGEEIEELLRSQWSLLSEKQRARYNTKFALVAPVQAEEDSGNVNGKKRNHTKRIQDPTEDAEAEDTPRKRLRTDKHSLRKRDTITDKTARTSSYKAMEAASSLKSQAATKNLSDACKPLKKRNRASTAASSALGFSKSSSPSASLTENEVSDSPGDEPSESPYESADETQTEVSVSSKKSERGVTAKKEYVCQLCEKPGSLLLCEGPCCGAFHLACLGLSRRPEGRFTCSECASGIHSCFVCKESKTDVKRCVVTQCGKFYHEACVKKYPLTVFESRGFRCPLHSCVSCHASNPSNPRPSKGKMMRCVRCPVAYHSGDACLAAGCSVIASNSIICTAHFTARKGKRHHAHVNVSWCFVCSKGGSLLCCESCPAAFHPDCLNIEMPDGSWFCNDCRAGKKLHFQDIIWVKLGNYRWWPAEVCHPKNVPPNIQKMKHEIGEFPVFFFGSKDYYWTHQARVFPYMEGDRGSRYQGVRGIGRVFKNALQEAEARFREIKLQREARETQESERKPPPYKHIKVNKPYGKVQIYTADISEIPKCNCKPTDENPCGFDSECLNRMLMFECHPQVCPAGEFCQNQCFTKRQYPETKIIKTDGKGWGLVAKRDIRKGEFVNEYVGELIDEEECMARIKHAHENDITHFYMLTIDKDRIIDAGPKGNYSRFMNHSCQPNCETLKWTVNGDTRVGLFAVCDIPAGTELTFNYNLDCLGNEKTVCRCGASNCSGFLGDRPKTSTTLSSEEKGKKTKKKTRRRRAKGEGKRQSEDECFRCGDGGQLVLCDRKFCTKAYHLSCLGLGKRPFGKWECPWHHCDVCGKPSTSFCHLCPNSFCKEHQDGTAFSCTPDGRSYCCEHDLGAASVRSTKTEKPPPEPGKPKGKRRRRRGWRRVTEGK

Kd (NSD2-PWWP1): 349 ± 19 nM
SMILES: O=C1COc2cc(C(=O)N(Cc3cccs3)C3CC3)ccc2N1 [MRT866]

SMILES: O=C1COc2cc(C(=O)N(Cc3ccc(C(=O)Nc4ccncn4)cc3)C3CC3)ccc2N1 [UNC6934]
proliferation of KMS-11 cells grown on bone marrow stroma (KMS-11 t(4; 14) MM cells): no changes
NSD2 signal within nucleoli ([1]; 5 μM compound): increase in NSD2 signal within nucleoli
correlation (PCC) between NSD2 and fibrillarin signals ([1]; 5 μM compound): significant increase
acute cytotoxic effects [2]: no acute cytotoxic effects
loci-specific H3K36me2 levels [3]: did not observe changes
BRET signal of NSD3-PWWP1 [4]: unaffected
global H3K36 methylation [5]: no significant change; also recorded: no changes
release of fl-NSD2 from chromatin [6]: modest release
inhibition of methyltransferases [7]: did not inhibit any
mRNA levels of NSD2 target genes [8]: did not observe changes
nucleolar localization of PWWP1 aromatic cage mutant NSD2-GFP [9]: no further increase
nucleolar signal of WT NSD2-GFP [9]: increase in nucleolar signal
nucleolar colocalization of PHD2 and PWWP2 mutant NSD2-GFP ([9]; H762R, W894A): additive effect
Ki [10]: 1400 ± 800 nM
inhibition at 10 µM [10]: > 50%
effect on ribosomal RNA (rRNA) transcription ([11]; 5 μM compound): no significant effect
pre-rRNA expression levels by RT-qPCR [11]: no major effect

SMILES: O=C(CCCC[C@@H]1SC[C@@H]2NC(=O)N[C@@H]21)NCCOCCOCCOCCOCCOCCOCCOCCOCCOCCOCCOCCNC(=O)c1ccc(NC(=O)c2ccc(CN(C(=O)c3ccc4c(c3)OCC(=O)N4)C3CC3)cc2)cc1 [UNC7096]
Kd (NSD2-PWWP1): 46 nM
enrichment of NSD2-short and NSD2-long isoforms by pulldown (endogenous NSD2; KMS-11 whole-cell lysates, immunoblotting): efficiently enriched

SMILES: CC(C)N(Cc1ccc(C(=O)Nc2ccncn2)cc1)C(=O)c1ccc2c(c1)OCC(=O)N2 [UNC7145]
NSD2 signal within nucleoli ([1]; 5 μM compound): no effect
acute cytotoxic effects [2]: no acute cytotoxic effects
IC50, disruption of NSD2-PWWP1 interaction with nucleosomal H3K36me2 [12]: no measurable effect
global H3K36 methylation [5]: no significant change
pattern of dsDNA binding to NSD2-PWWP1 in the presence of compound ([13]; 20 μM compound, NSD2-PWWP1 up to 2.5 μM): No significant difference
displacement of fluorescein-labelled dsDNA from NSD2-PWWP1 ([13]; compound up to 25 μM): no significant effect
inhibition of methyltransferases [7]: inactive
selectivity over other PWWP domains [14]: inactive
proteins depleted from UNC7096 pulldown by competition (endogenous NSD2; label-free proteomics, 20 μM compound, relative to DMSO): did not considerably alter the enrichment profile
IC50 [15]: 5100 ± 1000 nM
pre-rRNA expression levels by RT-qPCR [11]: no major effect

SMILES: Cc1c2oc3c(C)ccc(C(=O)N[C@@H]4C(=O)N[C@H](C(C)C)C(=O)N5CCC[C@H]5C(=O)N(C)CC(=O)N(C)[C@@H](C(C)C)C(=O)O[C@@H]4C)c3nc-2c(C(=O)N[C@@H]2C(=O)N[C@H](C(C)C)C(=O)N3CCC[C@H]3C(=O)N(C)CC(=O)N(C)[C@@H](C(C)C)C(=O)O[C@@H]2C)c(N)c1=O [actinomycin D, reference compound] (I: T[dV]P[Sar][NMeV] / II: T[dV]P[Sar][NMeV]; ester I:1-I:C, II:1-II:C; linker I:N-II:N via Actinocin(9to1))
steady-state pool of nucleolar NSD2 under nucleolar perturbation [1]: sensitive

SMILES: COc1cccc2c1C(=O)c1c(O)c3c(c(O)c1C2=O)C[C@@](O)(C(=O)CO)C[C@@H]3O[C@H]1C[C@H](N)[C@H](O)[C@H](C)O1 [doxorubicin, reference compound]
steady-state pool of nucleolar NSD2 under nucleolar perturbation [1]: sensitive
